Columns and labels:
[1] = Static R value for clinical TrDDI (FDA guidance); design: species or system human; conditions: eltrombopag victim, pitavastatin perpetrator; versus FDA cut‐offs
[2] = system: UDP‐glucuronosyltransferase (UGT)1A3 and 2B7 and cytochrome P450 (CYP)2C9; conditions: inhibition by eltrombopag of UGT1A3, 2B7 and CYP2C9 (exception CYP1B1); cited from earlier work
[3] = Semimechanistic PBPK model simulation in simulated healthy volunteers; design: species or system human; conditions: PBPK model value
Excerpt: Uptake is inhibited by the opposing drug in X 3 via the respective uptake concentration at half of the maximum uptake velocity (K m.up.X) shown as the inhibition constant (K I.up). Passive movement of drug into and out of the liver is through clearances P dif.X and P def.X, respectively. Both drugs are cleared through biliary excretion (CLbi.X) into the gallbladder (X 5), and into X 2 where they can be reabsorbed.
The micro‐rate constants for transporter‐mediated uptake and passive uptake were scaled to macro‐rate constants (see Table 2 ) and then empirically scaled up to the human body (83 kg, healthy adult; ^23 see Table 2 ).
The ODE PBPK model (see Figure 1 for schematic and Supplemental Material for the set of ODEs) was developed using desolve ^27 in R‐studio (v1.1.463, R‐Studio Inc., Boston, MA) running R‐project version 3.6.0 ^28 and was similar to that used for eltrombopag and rosuvastatin. ^5 All figures in this article were generated either within Inkscape (0.93, Inkscape.org, Boston, MA) or cowplot, ggplot2, ^29 , ^30 extrafont, ^31 and Cairo. ^32

[4] = cited from earlier work

R value, static model [1]: below the cut‐offs
CLmet.X, metabolic clearance ([3]; Eqs. 10 and 11): 6.8 mL/min/liver
CLbi.X, biliary clearance ([3]; Eqs. 12 and 13): 13 mL/min/liver
SMILES: CC1=NN(c2ccc(C)c(C)c2)C(=O)/C1=N\Nc1cccc(-c2cccc(C(=O)O)c2)c1O [eltrombopag, Eltrombopag]
IC50 [2]: 2 to 20 µM
binding of eltrombopag to plasma proteins [4]: 99.8%
f u.pl.E, eltrombopag fraction unbound in the plasma [4]: 0.002
blood:plasma ratio ([4]; eltrombopag): 0.78

Source: article PMC7179958 (CPT: Pharmacometrics & Systems Pharmacology, 2020)
